Data taken from article PMC10135964, “One Scaffold, Two Conformations: The Ring-Flip of the Messenger InsP8 Occurs under Cytosolic Conditions” (Biomolecules, 2023).
Where two headings read alike, the source gives them in different places.

What was measured:
[1] = biological target: T1, yeast VTC2 SPX domain (residues 1–182) (Saccharomyces cerevisiae, UniProt P43585); assay: Isothermal titration calorimetry of InsP8 binding to the VTC2 SPX domain; settings: 25 °C, pH 7.4, 150 mM KCl, 40 mM NaCl, mean of three replicates; for Kd: read-out: dissociation constant Kd
T1 construct: The VTC2 SPX domain (residues 1–182) was expressed with a C-terminal His6-tag; His6 (C); made in house
T1 sequence (P43585 1-182): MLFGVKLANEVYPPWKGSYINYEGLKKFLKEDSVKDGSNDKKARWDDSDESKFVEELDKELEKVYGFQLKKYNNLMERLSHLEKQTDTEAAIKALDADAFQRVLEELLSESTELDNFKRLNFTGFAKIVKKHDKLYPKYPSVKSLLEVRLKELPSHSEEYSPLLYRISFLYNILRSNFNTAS
Description: The VTC2 SPX domain (residues 1–182) was expressed with a C-terminal His6-tag and purified by Ni-affinity and size-exclusion chromatography, as previously published.
Protein stocks were diluted to 300 µL with final buffer conditions: 25 mM HEPES pH 7.4, 150 mM KCl, 40 mM NaCl, 0.5 mM TCEP (ITC buffer). The exact protein concentration for each replicate was determined separately by Bradford assay. InsP8 was diluted to 500 µM in ITC buffer. For binding experiments in the presence of magnesium ions, both dilution buffers were supplemented with MgCl2 to give a final concentration of 1 mM after dilution.
ITC experiments were carried out at 25 °C in a MicroCal PEAQ-ITC calorimeter (Malvern Panalytical GmbH, Kassel, Germany), with ca. 50 µM protein in the cell and 500 µM ligand in the syringe. InsP8 was titrated into the solution in nineteen 2 µL-steps. Spacing between injections was 150 s.
The corresponding instrument software (MicroCal PEAQ-ITC Analysis) was used for baseline correction, peak integration, data fitting and determination of binding parameters.

[2] = 31P-NMR titrations of InsP8 (protonation, K+ and Mg2+ complex formation constants, HypNMR); type: physicochemical; settings: for pH of the conformational change: 1 mM InsP8, 22 °C
Description: In order to create a system free of coordinating counterions, a batch of InsP8 was synthesized as described above, by enzymatic phosphorylation of 5PP-InsP5 and precipitation with Mg^2+, followed by Mg^2+ chelation on Amberlite® cation exchange resin. Unlike in the standard procedure, the resin was loaded with NMe4Cl instead of NH4CO3, resulting in a batch of InsP8 with non-coordinating NMe4^+ counterions. 1 mM EDTA was added to all ^31P-NMR titrations to chelate remaining traces of Mg^2+.
NMR-samples contained 1 mM InsP8, 1 mM EDTA, pH 3.0–12.5 (in H2O, steps of 0.5 pH units) and a) for the non-coordinating condition: 150 mM NMe4Cl or b) 150 mM KCl or c) 150 mM KCl and 1 mM MgCl2. Sealed glass capillaries containing 50 mM phosphonoacetic acid in D2O were added into the sample tubes for locking and chemical shift calibration.
^31P-NMR spectra were recorded at 295 K on a Bruker spectrometer (see above) operating at 600 MHz for protons and 244 MHz for phosphorous nuclei. SW: −40 ppm to −20 ppm, NS: 1024. Spectra at pH 3.0 were assigned by various 2D-NMR methods (Figure S5) and chemical shift changes were tracked across the pH range.
The data were analyzed using the HypNMR 2006 software (Hyperquad Limited, Lincoln, UK). Different possible stoichiometries were tested, and the final chemical models were selected on the basis of the σ parameter (scaled sum of square differences between predicted and experimental chemical shift values), the model confidence level estimator (chi square), and the internal consistency of data reflected in standard deviations of the formation constants. Species distribution diagrams were produced using the HySS program (Hyperquad Limited, Lincoln, UK).

[3] = Van't Hoff thermodynamic analysis of InsP8 conformational equilibrium; type: physicochemical; settings: 10 mM NaCl; for ΔH^0 of eq. to ax. conformational transition / ΔS^0 of eq. to ax. conformational transition: 50 µM InsP8, pH* 7.5, 130 mM KCl
Description: BIRD-HMQC NMR spectra were recorded as described above, at 274–283 K in 1 K steps, two replicate samples per condition. Instrument temperature was calibrated against d4-methanol according to Findeisen et al..
Samples contained 50 µM InsP8, 5 mM HEPES pH* 7.5 (pH set on ice), 130 mM KCl, 10 mM NaCl, and either 100 µM or 250 µM MgCl2. Acquisition parameters were SW(^13C): 62–82 ppm, NS: 2048, TD(^13C): 16.
The best-isolated peaks (the 2-peak of ax. and 1-peak of eq. conformer) were integrated, subtracting 1PP-InsP5 impurities. The ax./eq. ratio (i.e., equilibrium constant K for the eq. to ax. transition) was plotted against 1/T, where T is temperature in Kelvin.
ΔH^0 and ΔS^0 were calculated from the regression line. Two replicates were combined for the linear regression.

[4] = 1H,13C BIRD-HMQC NMR quantification of axial vs. equatorial conformer; type: physicochemical; settings: pH* 7.5, 5 equiv. Ca2+, 130 mM KCl, 10 mM NaCl
VTC complex = tested on: VTC complex; parameters: method as in PMID 28186404; settings: in vitro, VTC complex from budding yeast S. cerevisiae; cited from earlier work

## O=P(O)(O)O[C@@H]1[C@@H](OP(=O)(O)O)[C@H](OP(=O)(O)OP(=O)(O)O)[C@@H](OP(=O)(O)O)[C@H](OP(=O)(O)OP(=O)(O)O)[C@@H]1OP(=O)(O)O [InsP8, 1,5(PP)2-InsP4]
[1]; 1 mM MgCl2
  ΔH of binding: -5.9 kcal/mol
  −TΔS of binding: -3.3 kcal/mol
  Kd: 205 nM
[1]; without divalent ions
  ΔH of binding: -3.5 kcal/mol
  −TΔS of binding: -5.2 kcal/mol
  Kd: 373 nM
[2]; 150 mM K+
  pH of the conformational change: 8.5–9.0
[2]; 150 mM KCl and 1 mM MgCl2, 1 mM InsP8, 22 °C
  pH of the transition to the equatorial conformation: ~8.5
[2]; 31P NMR, 22 °C, I = 0.15 M
  log K, 2 K^+ + H5L^9− ↔ [K2(H5L)]^7−: 3.820(7)
  log K, 3 K^+ + H4L^10− ↔ [K3(H4L)]^7−: 5.446(5)
  log K, 4 K^+ + H2L^12− ↔ [K4(H2L)]^8−: 9.76(3)
  log K, 5 K^+ + HL^13− ↔ [K5(HL)]^8−: 12.47(3)
  log K, K^+ + H6L^8− ↔ [K(H6L)]^7−: 2.58(5)
  log K, K^+ + H7L^7− ↔ [K(H7L)]^6−: 2.08(3)
  log K, L^14− + 2 H^+ ↔ H2L^12−: 22.78(2)
  log K, L^14− + 3 H^+ ↔ H3L^11−: 34.22(2)
  log K, L^14− + 4 H^+ ↔ H4L^10−: 43.96(2)
  log K, L^14− + 5 H^+ ↔ H5L^9−: 52.58(3)
  log K, L^14− + 6 H^+ ↔ H6L^8−: 59.41(8)
  log K, L^14− + 7 H^+ ↔ H7L^7−: 64.91(6)
  log K, L^14− + 8 H^+ ↔ H8L^6−: 68.79(7)
  log K, L^14− + H^+ ↔ HL^13−: 11.21(1)
  log K, Mg^2+ + H2L^12− + 3 K^+ ↔ [MgK3(H2L)]^7−: 18.1(1)
  log K, Mg^2+ + H4L^10− + 2 K^+ ↔ [MgK2(H4L)]^6−: 11.6(1)
  log K, Mg^2+ + H5L^9− + K^+ ↔ [MgK(H5L)]^6−: 9.1(1)
  log K, Mg^2+ + H6L^8− + K^+ ↔ [MgK(H6L)]^5−: 7.3(1)
  log K, Mg^2+ + HL^13− + 4 K^+ ↔ [MgK4(HL)]^7−: 21.6(1)
  log K, Mg^2+ + L^14− + 4 K^+ ↔ [MgK4L]^8−: 22.4(1)
[2]; pH 7.4
  negative charges carried: 10–11
[2]; physiological pH range, 150 mM KCl and 1 mM MgCl2, 22 °C
  most abundant species: [MgK3(H3L)]^6−
[2]; without coordinating cations (150 mM NMe4Cl)
  pH of the conformational change: ~11
[3]; 2 equiv. MgCl2, 274–283 K
  ΔH^0 of eq. to ax. conformational transition: -17.1 ± 2.1 kcal/mol
  ΔS^0 of eq. to ax. conformational transition: −0.063 ± 0.008 kcal/(mol·K)
[3]; 5 equiv. MgCl2, 274–283 K
  ΔH^0 of eq. to ax. conformational transition: -7.2 ± 1.9 kcal/mol
  ΔS^0 of eq. to ax. conformational transition: −0.025 ± 0.007 kcal/(mol·K)
[3]; 2 equiv. Mg2+, pH* 7.5, 130 mM KCl
  axial conformer estimated at 37 °C (Gibbs-Helmholtz equation): about 2%
[3]; 5 equiv. Mg2+, pH* 7.5, 130 mM KCl
  axial conformer predicted at 37 °C (310 K): 29%
[4]
  proportion in axial conformation: About 15%
VTC complex
  effectiveness at activating polyphosphate synthesis by the VTC complex: twenty-times more effective than 5PP-InsP5
